The values that follow are results of earlier work, collected in US7383946B2 (priority 2004, dated 2008).

In the case of `[O][Cl+][O-]` [Chlorine dioxide, chlorine dioxide], the “concentration at which chlorine dioxide is stable in water and aqueous solutions” value is “approximately 10 g/L”.
